{"source": "patent US20250073244A1", "about": "“CRYSTALLINE FORMS OF PENTAAZA MACROCYCLIC RING COMPLEX” (Galera Labs, LLC, priority 2023, published 2025)", "key": {"[1]": {"assay": "Equilibration with solvents at 25° C.", "protocol": "(§1) About 50 mg of drug substance was equilibrated in suitable amount of solvent at 25° C. for 2 weeks with a stirring plate (Table 30). Obtained suspension was filtered. The solid part (wet cake) was investigated by XRPD. When differences were observed, additional investigations were performed (e.g. DSC, TGA. FT-IR, PLM/SEM, etc.).\n[…] The solid part (wet cake) was investigated by XRPD. If differences are observed, additional investigation will be performed (e.g. DSC, TGA, HPLC, etc.)"}, "[2]": {"assay": "Crystallization from hot saturated solutions by fast cooling", "conditions": "fast cooling from 50° C. (ice bath); MEK; yellow solid", "protocol": "Approximate 100 mg of drug substance was dissolved in the minimal amount of selected solvents at 50° C. Obtained solutions were put into an ice bath. Precipitates were collected by filtration. The solid part (wet cake) was investigated by XRPD. When differences were observed, additional investigations were performed (e.g. DSC, TGA. FT-IR, PLM/SEM, etc.). When no precipitation was obtained, the solutions were put in −20° C. freezer for crystallization."}, "[3]": {"assay": "Scale up experiment of Pattern A and Pattern D", "conditions": "Slow cooling, MEK", "protocol": "About 6 g API were used for Pattern A and Pattern D scale up.\nObtained suspension was filtered. The solid part (wet cake) was investigated by XRPD.\nAbout 3 g drug substance were equilibrated in 8 mL of solvent (Water: Acetone, 10:90, v:v) at 25° C. for 1 week with a stirring plate. Obtained suspension was filtered. The solid part (wet cake) was investigated by XRPD."}, "[4]": {"assay": "Equilibration with solvents at 50° C. for 1 week", "protocol": "as §1, with “minimal” for “suitable”, “50°” for “25°”, “1 week” for “2 weeks”, “32).” for “30).”"}, "[5]": {"assay": "Crystallization at room temperature by slow evaporation", "protocol": "Combined with approximate solubility experiment, solubility samples were filtered by 0.45 μm nylon filter. Obtained solutions were slow evaporated at ambient condition. Solid residues were examined for their polymorphic form (Table 34).\nScale up: About 200 mg of drug substance will be dissolved in EtOAc. Obtained solutions shall be exposed to ambient condition (protected by N2) to allow slow evaporation of solvents (Table 35)."}, "[6]": {"assay": "Water activity study at 25° C. (acetone/water)", "type": "physicochemical", "conditions": "Acetone & water, protected by N2, 5 days", "protocol": "Water activity experiments were conducted at 25° C. in 10 different water activities with 1 set of organic solvent/water mixtures (acetone/water) to determine critical water activity between anhydrate and hydrate."}, "[7]": {"assay": "Precipitation by addition of anti-solvent", "conditions": "anti-solvent Heptane", "protocol": "About 50 mg of drug substance was dissolved in a good solvent. Anti-solvent was added into the obtained solutions slowly. Precipitates were collected by filtration. The solid part (wet cake) was investigated by XRPD. When differences were observed, additional investigations were performed (e.g. DSC, TGA. FT-IR, PLM/SEM, etc.).\nScale up: About 200 mg of drug substance was dissolved in EtOAc. Heptane was added to the obtained solutions. The solid part (wet cake) was investigated by XRPD. When differences were observed, additional investigations were performed (e.g. DSC, TGA. FT-IR, PLM/SEM, etc.)"}, "[8]": {"conditions": "2 weeks, Heptane/Acetone, 80/20"}, "[9]": {"conditions": "5 days, protected by N2, Acetone"}, "[10]": {"conditions": "5 days, protected by N2, Heptane"}, "[11]": {"conditions": "5 days, protected by N2, Toluene"}}}
{"smiles": "CCC(=O)[O][Mn][O]C(=O)CC.c1cc2nc(c1)CN[C@H]1CCCC[C@@H]1NCCN[C@H]1CCCC[C@@H]1NC2", "note": "[API]", "values": [{"measurement": "Comments", "setting": "[1]; 2 weeks, EtOAc", "result": "API degradation,"}, {"measurement": "purity", "setting": "[1]; 2 weeks, EtOAc", "result": "purity 75.69%"}, {"measurement": "purity", "setting": "[1]; 2 weeks, Heptane", "result": "Purity 99.02%"}, {"measurement": "Comments", "setting": "[1]; [8]", "result": "API degradation,"}, {"measurement": "purity", "setting": "[1]; [8]", "result": "purity 94.83%"}, {"measurement": "Comments", "setting": "[1]; 2 weeks, Heptane/EtOAc, 80/20", "result": "API degradation,"}, {"measurement": "purity", "setting": "[1]; 2 weeks, Heptane/EtOAc, 80/20", "result": "purity 92.64%"}, {"measurement": "Comments", "setting": "[1]; 2 weeks, IPAC", "result": "API degradation,"}, {"measurement": "purity", "setting": "[1]; 2 weeks, IPAC", "result": "purity 84.49%"}, {"measurement": "Comments", "setting": "[1]; 2 weeks, MTBE", "result": "API degradation,"}, {"measurement": "purity", "setting": "[1]; 2 weeks, MTBE", "result": "purity 88.12%"}, {"measurement": "Comments", "setting": "[1]; 2 weeks, MTBE/Acetone, 80/20c", "result": "API degradation,"}, {"measurement": "purity", "setting": "[1]; 2 weeks, MTBE/Acetone, 80/20c", "result": "purity 87.39%"}, {"measurement": "Comments", "setting": "[1]; 2 weeks, MTBE/EIOAc, 80/20", "result": "API degradation,"}, {"measurement": "purity", "setting": "[1]; 2 weeks, MTBE/EIOAc, 80/20", "result": "purity 89.32%"}, {"measurement": "Comments", "setting": "[1]; [9]", "result": "API degradation"}, {"measurement": "purity", "setting": "[1]; [9]", "result": 98.41, "unit": "%"}, {"measurement": "Comments", "setting": "[1]; 5 days, protected by N2, EtOAc", "result": "API degradation"}, {"measurement": "purity", "setting": "[1]; 5 days, protected by N2, EtOAc", "result": 97.78, "unit": "%"}, {"measurement": "Comments", "setting": "[1]; [10]", "result": "API degradation"}, {"measurement": "purity", "setting": "[1]; [10]", "result": 99.85, "unit": "%"}, {"measurement": "Comments", "setting": "[1]; 5 days, protected by N2, IPAC", "result": "API degradation"}, {"measurement": "purity", "setting": "[1]; 5 days, protected by N2, IPAC", "result": 98.30, "unit": "%"}, {"measurement": "Comments", "setting": "[1]; 5 days, protected by N2, MEK", "result": "API degradation"}, {"measurement": "purity", "setting": "[1]; 5 days, protected by N2, MEK", "result": 97.52, "unit": "%"}, {"measurement": "Comments", "setting": "[1]; 5 days, protected by N2, MTBE", "result": "API degradation"}, {"measurement": "purity", "setting": "[1]; 5 days, protected by N2, MTBE", "result": 98.62, "unit": "%"}, {"measurement": "Comments", "setting": "[1]; [11]", "result": "API degradation"}, {"measurement": "purity", "setting": "[1]; [11]", "result": 92.88, "unit": "%"}, {"measurement": "purity", "setting": "[2]", "result": "Yellow solid, 94.19%"}, {"measurement": "Comments", "setting": "[3]", "result": "API degradation, purity"}, {"measurement": "purity", "setting": "[3]", "result": 93.4, "unit": "%"}, {"measurement": "Comments", "setting": "[4]; Heptane", "result": "API degradation"}, {"measurement": "purity", "setting": "[4]; Heptane", "result": 94.65, "unit": "%"}, {"measurement": "Comments", "setting": "[4]; Heptane/Acetone, 80/20", "result": "API degradation"}, {"measurement": "purity", "setting": "[4]; Heptane/Acetone, 80/20", "result": 95.63, "unit": "%"}, {"measurement": "Comments", "setting": "[4]; Heptane/EtOAc, 80/20", "result": "API degradation"}, {"measurement": "purity", "setting": "[4]; Heptane/EtOAc, 80/20", "result": 85.84, "unit": "%"}, {"measurement": "Comments", "setting": "[4]; Heptane/EtOH, 80/20", "result": "API was soluble in the solvent"}, {"measurement": "Comments", "setting": "[4]; Heptane/IPA, 80/20", "result": "API was soluble in the solvent"}, {"measurement": "Comments", "setting": "[4]; MTBE", "result": "API degradation"}, {"measurement": "purity", "setting": "[4]; MTBE", "result": 92.26, "unit": "%"}, {"measurement": "Comments", "setting": "[4]; MTBE/Acetone, 80/20", "result": "API degradation"}, {"measurement": "purity", "setting": "[4]; MTBE/Acetone, 80/20", "result": 93.80, "unit": "%"}, {"measurement": "Comments", "setting": "[4]; MTBE/EtOAc, 80/20", "result": "API degradation"}, {"measurement": "purity", "setting": "[4]; MTBE/EtOAc, 80/20", "result": 87.67, "unit": "%"}, {"measurement": "Comments", "setting": "[4]; MTBE/EtOH, 80/20", "result": "API was soluble in the solvent"}, {"measurement": "Comments", "setting": "[4]; MTBE/IPA, 80/20", "result": "API was soluble in the solvent"}, {"measurement": "Comments", "setting": "[5]; protect with N2, 1,4-Dioxane", "result": "API degradation, purity"}, {"measurement": "purity", "setting": "[5]; protect with N2, 1,4-Dioxane", "result": 97.76, "unit": "%"}, {"measurement": "Comments", "setting": "[5]; protect with N2, ACN", "result": "API degradation, purity"}, {"measurement": "purity", "setting": "[5]; protect with N2, ACN", "result": 98.98, "unit": "%"}, {"measurement": "purity", "setting": "[5]; protect with N2, Acetone", "result": "Purity 99.39%"}, {"measurement": "purity", "setting": "[5]; protect with N2, DCM", "result": "Purity 99.93%"}, {"measurement": "purity", "setting": "[5]; protect with N2, EtOAc", "result": "Purity 99.42%"}, {"measurement": "purity", "setting": "[5]; protect with N2, Ethanol", "result": "Purity 99.65%"}, {"measurement": "purity", "setting": "[5]; protect with N2, IPA", "result": "Purity 99.63%"}, {"measurement": "purity", "setting": "[5]; protect with N2, IPAC", "result": "Purity 99.90%"}, {"measurement": "purity", "setting": "[5]; protect with N2, MEK", "result": "Purity 99.33%"}, {"measurement": "purity", "setting": "[5]; protect with N2, MTBE", "result": "Purity 99.88%"}, {"measurement": "purity", "setting": "[5]; protect with N2, Methanol", "result": "Purity 99.92%"}, {"measurement": "purity", "setting": "[5]; protect with N2, THF", "result": "Purity 99.12%"}, {"measurement": "Comments", "setting": "[5]; protect with N2, Toluene", "result": "API degradation, purity"}, {"measurement": "purity", "setting": "[5]; protect with N2, Toluene", "result": 96.47, "unit": "%"}, {"measurement": "Comments", "setting": "[6]; a.w. 0", "result": "API degradation"}, {"measurement": "purity", "setting": "[6]; a.w. 0", "result": 97.34, "unit": "%"}, {"measurement": "XRPD", "setting": "[6]; a.w. 0.103", "result": "Pattern A"}, {"measurement": "purity", "setting": "[6]; a.w. 0.103", "result": "Purity 98.27%"}, {"measurement": "XRPD", "setting": "[6]; a.w. 0.206", "result": "Pattern A"}, {"measurement": "purity", "setting": "[6]; a.w. 0.206", "result": "Purity 99.18%"}, {"measurement": "XRPD", "setting": "[6]; a.w. 0.301", "result": "Pattern D"}, {"measurement": "purity", "setting": "[6]; a.w. 0.301", "result": "Purity 99.77%"}, {"measurement": "XRPD", "setting": "[6]; a.w. 0.400", "result": "Pattern D"}, {"measurement": "purity", "setting": "[6]; a.w. 0.400", "result": "Purity 99.49%"}, {"measurement": "XRPD", "setting": "[6]; a.w. 0.501", "result": "Pattern D"}, {"measurement": "purity", "setting": "[6]; a.w. 0.501", "result": "Purity 99.33%"}, {"measurement": "XRPD", "setting": "[6]; a.w. 0.603", "result": "Pattern D"}, {"measurement": "purity", "setting": "[6]; a.w. 0.603", "result": "Purity 99.19%"}, {"measurement": "Comments", "setting": "[6]; a.w. 0.703", "result": "Clear solution"}, {"measurement": "Comments", "setting": "[6]; a.w. 0.803", "result": "Clear solution"}, {"measurement": "Comments", "setting": "[6]; a.w. 0.901", "result": "Clear solution"}, {"measurement": "purity", "setting": "[7]; solvent Acetone", "result": "purity 99.93%"}, {"measurement": "purity", "setting": "[7]; solvent EtOAc", "result": "purity 99.95%"}]}
